{"source": "patent US8901139B2", "about": "“Tricyclic indole derivatives and methods of use thereof” (Merck Sharp & Dohme Corp., priority 2008, dated 2014)", "data": [{"tested_on": "HCV replicon cells (replicon RNA level)", "assay": "Cell-Based HCV Replicon Assay", "conditions": "Hepatitis C virus, 72 h; replicon RNA by real time PCR (Taqman), day 3; ΔCT=3.2 over baseline", "procedure": "To measure cell-based anti-HCV activity of the a Compound of Formula (I), replicon cells were seeded at 5000 cells/well in 96-well collagen I-coated Nune plates in the presence of the Compound of Formula (I). Various concentrations of a Compound of Formula (I), typically in 10 serial 2-fold dilutions, were added to the assay mixture, with the starting concentration ranging from 250 μM to 1 μM. The final concentration of DMSO was 0.5%, fetal bovine serum was 5%, in the assay media. Cells were harvested on day 3 by the addition of 1× cell lysis buffer (Ambion cat #8721). The replicon RNA level was measured using real time PCR (Taqman assay). The amplicon was located in 5B. The PCR primers were: 5B.2F, ATGGACAGGCGCCCTGA (SEQ. ID. NO. 2); 5B.2R, […] (SEQ. ID. NO. 3);the probe sequence was FAM-labeled CACGCCATGCGCTGCGG (SEQ. ID. NO. 4). GAPDH RNA was used as endogenous control and was amplified in the same reaction as NS5B (multiplex PCR) using primers and VIC-labeled probe recommended by the manufacturer (PE Applied Biosystem). The real-time RT-PCR reactions were run on ABI PRISM 7900HT Sequence Detection System using the following program: 48° C. for 30 minutes, 95° C. for 10 minutes, 40 cycles of 95° C. for 15 sec, 60° C. for 1 minute. The ΔCT values (CT5B-CTGAPDH) were plotted against the concentration of test compound and fitted to the sigmoid dose-response model using XLfit4 (MDL). EC50 was defined as the concentration of inhibitor necessary to achieve ΔCT=1 over the projected baseline; EC90 the concentration necessary to achieve ΔCT=3.2 over the baseline. Alternatively, to quantitate the absolute amount of replicon RNA, a standard curve was established by including serially diluted T7 transcripts of replicon RNA in the Taqman assay. All Taqman reagents were from PE Applied Biosystems. Such an assay procedure was described in detail in e.g. Malcolm et al., Antimicrobial Agents and Chemotherapy 50: 1013-1020 (2006).\nHCV replicon assay data was calculated for selected compounds of the present invention using this method.", "units": {"EC90": "nM"}, "values": [{"smiles": "Cc1cc2[nH]ncc2cc1Cn1c(C(=O)OCCN(C)C)c(-c2ccc[nH]c2=O)c2c3occc3c(F)cc21", "note": "[Compound 172]", "EC90": "< 100"}, {"smiles": "CN(C)CCOC(=O)c1c(-c2ccc[nH]c2=O)c2c3c(c(F)cc2n1Cc1cc2cn[nH]c2cc1F)CCO3", "note": "[Compound 174]", "EC90": "< 100"}, {"smiles": "O=Cc1ccc(F)c(Cn2c(C(=O)O)c(-c3ccc[nH]c3=O)c3c4occc4c(F)cc32)c1", "note": "[Compound 131]", "EC90": "< 100"}, {"smiles": "O=C(O)c1c(-c2ccc[nH]c2=O)c2c3occc3c(F)cc2n1Cc1cc2cc[nH]c2cc1Br", "note": "[Compound 170]", "EC90": "< 100"}, {"smiles": "C=CCNCCOC(=O)c1c(-c2ccc[nH]c2=O)c2c3occc3c(F)cc2n1Cc1cc2cn[nH]c2cc1CC=C", "note": "[Compound 188]", "EC90": "< 100"}, {"smiles": "N#Cc1ccc(F)c(Cn2c(C(=O)O)c(-c3ccc[nH]c3=O)c3c4occc4c(F)cc32)c1", "note": "[Compound 129]", "EC90": "< 100"}, {"smiles": "Nc1ncnc2cc(F)c(Cn3c(C(=O)O)c(-c4ccc[nH]c4=O)c4c5occc5c(F)cc43)cc12", "note": "[Compound 161]", "EC90": "< 100"}, {"smiles": "CN(C)CCOC(=O)c1c(-c2ccc[nH]c2=O)c2c3occc3c(F)cc2n1Cc1cc(N)nc2ccccc12", "note": "[Compound 177]", "EC90": "< 100"}, {"smiles": "CN(C)CCCOC(=O)c1c(-c2ccc[nH]c2=O)c2c3occc3c(F)cc2n1Cc1cc2c(=O)[nH]cnc2cc1F", "note": "[Compound 189]", "EC90": "< 100"}, {"smiles": "O=C(O)c1c(-c2ccc[nH]c2=O)c2c3occc3c(F)cc2n1Cc1cc2cn[nH]c2cc1Cl", "note": "[Compound 150]", "EC90": "< 100"}, {"smiles": "CN(C)CCOC(=O)c1c(-c2ccc[nH]c2=O)c2c3occc3c(F)cc2n1Cc1cc2c(N)ncnc2cc1F", "note": "[Compound 185]", "EC90": "< 100"}, {"smiles": "Cc1cc2[nH]ncc2cc1Cn1c(C(=O)O)c(-c2ccc[nH]c2=O)c2c3occc3c(F)cc21", "note": "[Compound 136]", "EC90": "< 100"}, {"smiles": "O=C(O)c1c(-c2ccc[nH]c2=O)c2c3occc3c(F)cc2n1Cc1cc2c(=O)[nH]cnc2cc1Cl", "note": "[Compound 164]", "EC90": "< 100"}, {"smiles": "Cn1cnc2cc(Cl)c(Cn3c(C(=O)O)c(-c4ccc[nH]c4=O)c4c5occc5c(F)cc43)cc21", "note": "[Compound 162]", "EC90": "< 100"}, {"smiles": "O=C(O)c1c(-c2ccc[nH]c2=O)c2c3c(c(F)cc2n1Cc1cc2c(=O)[nH]c(=O)[nH]c2cc1F)CCO3", "note": "[Compound 165]", "EC90": "< 100"}, {"smiles": "O=C(O)c1c(-c2ccc[nH]c2=O)c2c3c(c(F)cc2n1Cc1cc2cn[nH]c2cc1Cl)CCO3", "note": "[Compound 157]", "EC90": "< 100"}]}]}
